{"source": "paper PMC8632988", "about": "“Inhibition of SYK and cSrc kinases can protect bone and cartilage in preclinical models of osteoarthritis and rheumatoid arthritis” (Scientific Reports, 2021)", "test_system": "Lewis rats, CIA model", "assay": "Collagen-induced semi-established arthritis model in rats", "format": "in vivo, rat", "details": "for Bone Resorption score, Mean / Cartilage Damage score, Mean / Inflammation score, Mean / Pannus score, Mean / Periosteal Bone Formation score, Mean / Periosteal Naïve Bone Width Actual, Mean / Summed Histopathology Scores, Mean: group mean; for Bone Resorption score (0=normal to 5=severe) / Cartilage Damage score (0=normal to 5=severe) / Inflammation score (0=normal to 5=severe) / Pannus score (0=normal to 5=severe) / Periosteal Bone Formation score (0=normal to 5=severe) / Periosteal Naïve Bone Width 16x Measure / Periosteal Naïve Bone Width Actual / Summed Histopathology Scores: individual joint (animal, R/L); for Bone Resorption score, % inhibition / Cartilage Damage score, % inhibition / Inflammation score, % inhibition / Pannus score, % inhibition / Periosteal Bone Formation score, % inhibition / Periosteal Naïve Bone Width, % inhibition / Summed Histopathology Scores, % inhibition: vs vehicle", "method": "Rat CIA model was performed was performed at Pharmenterprises, Russia and approved by Ethics Committee of Pharmenterprises. Female Lewis rats with body weight of 164–183 g (Charles River Laboratories, Inc., Wilmington, MA) were injected with porcine type II collagen (Chondrex) emulsified with Freund’s Incomplete Adjuvant (Sigma Aldrich) at two sites at the base of the tail according to standard protocol. On day 7, the rats were boosted with a second subcutaneous injection. On day 6 of the study, rats were randomized by body weight into six groups: a control group of four, and five treatment groups of eight. […] Disease progression was monitored via daily ankle thickness measurements. At study termination on day 16 rats were anesthetized with Isoflurane, bled by vacutainer through the descending aorta to exsanguinate and then euthanized for tissue collection. Hind paws were transected at the level of the medial and lateral malleolus, weighed, and collected for microscopy.\n[…]", "key": {"[1]": {"details": "ankle, day 16, MT-SYK-03 103 mg/kg PO BID + MTX Veh PO QD"}, "[2]": {"details": "ankle, day 16, MT-SYK-03 103 mg/kg PO BID + MTX Veh PO QD, 103 mg/kg"}, "[3]": {"details": "ankle, day 16, MT-SYK-03 207 mg/kg PO BID"}, "[4]": {"details": "ankle, day 16, MT-SYK-03 207 mg/kg PO BID, 207 mg/kg"}, "[5]": {"details": "knee, day 16, MT-SYK-03 103 mg/kg PO BID + MTX Veh PO QD"}, "[6]": {"details": "knee, day 16, MT-SYK-03 103 mg/kg PO BID + MTX Veh PO QD, 103 mg/kg"}, "[7]": {"details": "knee, day 16, MT-SYK-03 207 mg/kg PO BID + MTX Veh PO QD"}}, "note": "Where “and” joins values, the source holds several entries; their conditions need not be identical. Identical values can stand only once."}
{"smiles": "COc1cc(Nc2ncnc(Nc3cc4c(cn3)NC(=O)C(C)(C)O4)n2)cc(OC)c1OC", "note": "[MT-SYK-03]", "values": [{"measurement": "Bone Resorption score, Mean", "setting": "[1]", "value": 1.50}, {"measurement": "Cartilage Damage score, Mean", "setting": "[1]", "value": 2.09}, {"measurement": "Inflammation score, Mean", "setting": "[1]", "value": 4.44}, {"measurement": "Pannus score, Mean", "setting": "[1]", "value": 1.50}, {"measurement": "Periosteal Bone Formation score, Mean", "setting": "[1]", "value": 1.19}, {"measurement": "Periosteal Naïve Bone Width Actual, Mean", "setting": "[1]", "value": 200.81, "unit": "μm"}, {"measurement": "Summed Histopathology Scores, Mean", "setting": "[1]", "value": 10.72}, {"measurement": "Bone Resorption score (0=normal to 5=severe)", "setting": "[2]", "value": "2 and 0.5 and 1"}, {"measurement": "Cartilage Damage score (0=normal to 5=severe)", "setting": "[2]", "value": "3 and 0.5 and 2 and 1"}, {"measurement": "Inflammation score (0=normal to 5=severe)", "setting": "[2]", "value": "5 and 2 and 4 and 3"}, {"measurement": "Pannus score (0=normal to 5=severe)", "setting": "[2]", "value": "2 and 0.5 and 1"}, {"measurement": "Periosteal Bone Formation score (0=normal to 5=severe)", "setting": "[2]", "value": "2 and 0 and 1 and 0.5"}, {"measurement": "Periosteal Naïve Bone Width 16x Measure", "setting": "[2]", "value": "5 and 0 and 3 and 2 and 1 and 4"}, {"measurement": "Periosteal Naïve Bone Width Actual", "setting": "[2]", "value": "315 μm and 0 μm and 189 μm and 126 μm and 63 μm and 252 μm"}, {"measurement": "Summed Histopathology Scores", "setting": "[2]", "value": "14 and 3.5 and 12 and 13 and 10 and 6.5 and 7.5 and 8.5"}, {"measurement": "Bone Resorption score, % inhibition", "setting": "[1]", "value": "−2", "unit": "%"}, {"measurement": "Cartilage Damage score, % inhibition", "setting": "[1]", "value": 13, "unit": "%"}, {"measurement": "Inflammation score, % inhibition", "setting": "[1]", "value": 1, "unit": "%"}, {"measurement": "Pannus score, % inhibition", "setting": "[1]", "value": -2, "unit": "%"}, {"measurement": "Periosteal Bone Formation score, % inhibition", "setting": "[1]", "value": 7, "unit": "%"}, {"measurement": "Periosteal Naïve Bone Width, % inhibition", "setting": "[1]", "value": 11, "unit": "%"}, {"measurement": "Summed Histopathology Scores, % inhibition", "setting": "[1]", "value": 4, "unit": "%"}, {"measurement": "Bone Resorption score, Mean", "setting": "[3]", "value": 1.06}, {"measurement": "Cartilage Damage score, Mean", "setting": "[3]", "value": 1.78}, {"measurement": "Inflammation score, Mean", "setting": "[3]", "value": 3.84}, {"measurement": "Pannus score, Mean", "setting": "[3]", "value": 1.06}, {"measurement": "Periosteal Bone Formation score, Mean", "setting": "[3]", "value": 0.69}, {"measurement": "Periosteal Naïve Bone Width Actual, Mean", "setting": "[3]", "value": 129.94, "unit": "μm"}, {"measurement": "Summed Histopathology Scores, Mean", "setting": "[3]", "value": 8.44}, {"measurement": "Bone Resorption score (0=normal to 5=severe)", "setting": "[4]", "value": "1 and 2 and 0 and 0.5"}, {"measurement": "Cartilage Damage score (0=normal to 5=severe)", "setting": "[4]", "value": "2 and 3 and 0.5 and 1"}, {"measurement": "Inflammation score (0=normal to 5=severe)", "setting": "[4]", "value": "4 and 5 and 0.5 and 1 and 2 and 3"}, {"measurement": "Pannus score (0=normal to 5=severe)", "setting": "[4]", "value": "1 and 2 and 0 and 0.5"}, {"measurement": "Periosteal Bone Formation score (0=normal to 5=severe)", "setting": "[4]", "value": "0.5 and 1 and 0 and 2"}, {"measurement": "Periosteal Naïve Bone Width 16x Measure", "setting": "[4]", "value": "1 and 2 and 3 and 4 and 0 and 5"}, {"measurement": "Periosteal Naïve Bone Width Actual", "setting": "[4]", "value": "63 μm and 126 μm and 189 μm and 252 μm and 0 μm and 315 μm"}, {"measurement": "Summed Histopathology Scores", "setting": "[4]", "value": "8.5 and 12.5 and 13 and 12 and 10 and 1 and 1.5 and 3.5 and 4 and 14 and 6.5"}, {"measurement": "Periosteal Naïve Bone Width, ANOVA to Vehicle", "setting": "ankle, day 16, MT-SYK-03 207 mg/kg PO BID, p value", "value": "p < 0.05"}, {"measurement": "Bone Resorption score, % inhibition", "setting": "[3]", "value": 28, "unit": "%"}, {"measurement": "Cartilage Damage score, % inhibition", "setting": "[3]", "value": 26, "unit": "%"}, {"measurement": "Inflammation score, % inhibition", "setting": "[3]", "value": 15, "unit": "%"}, {"measurement": "Pannus score, % inhibition", "setting": "[3]", "value": 28, "unit": "%"}, {"measurement": "Periosteal Bone Formation score, % inhibition", "setting": "[3]", "value": 46, "unit": "%"}, {"measurement": "Periosteal Naïve Bone Width, % inhibition", "setting": "[3]", "value": 42, "unit": "%"}, {"measurement": "Summed Histopathology Scores, % inhibition", "setting": "[3]", "value": 24, "unit": "%"}, {"measurement": "Bone Resorption score, Mean", "setting": "[5]", "value": 0.66}, {"measurement": "Cartilage Damage score, Mean", "setting": "[5]", "value": 1.03}, {"measurement": "Inflammation score, Mean", "setting": "[5]", "value": 2.78}, {"measurement": "Pannus score, Mean", "setting": "[5]", "value": 0.72}, {"measurement": "Summed Histopathology Scores, Mean", "setting": "[5]", "value": 5.19}, {"measurement": "Bone Resorption score (0=normal to 5=severe)", "setting": "[6]", "value": "1 and 2 and 0 and 0.5"}, {"measurement": "Cartilage Damage score (0=normal to 5=severe)", "setting": "[6]", "value": "2 and 0 and 1 and 0.5"}, {"measurement": "Inflammation score (0=normal to 5=severe)", "setting": "[6]", "value": "5 and 0.5 and 4 and 3 and 2"}, {"measurement": "Pannus score (0=normal to 5=severe)", "setting": "[6]", "value": "1 and 2 and 0 and 0.5"}, {"measurement": "Summed Histopathology Scores", "setting": "[6]", "value": "9 and 11 and 0.5 and 7 and 8 and 5 and 4.5 and 3 and 1"}, {"measurement": "Bone Resorption score, % inhibition", "setting": "[5]", "value": 9, "unit": "%"}, {"measurement": "Cartilage Damage score, % inhibition", "setting": "[5]", "value": 21, "unit": "%"}, {"measurement": "Inflammation score, % inhibition", "setting": "[5]", "value": 13, "unit": "%"}, {"measurement": "Pannus score, % inhibition", "setting": "[5]", "value": 4, "unit": "%"}, {"measurement": "Summed Histopathology Scores, % inhibition", "setting": "[5]", "value": 13, "unit": "%"}, {"measurement": "Bone Resorption score, Mean", "setting": "[7]", "value": 0.16}, {"measurement": "Cartilage Damage score, Mean", "setting": "[7]", "value": 0.56}, {"measurement": "Inflammation score, Mean", "setting": "[7]", "value": 1.59}, {"measurement": "Pannus score, Mean", "setting": "[7]", "value": 0.41}]}
